Data on two compounds can be found in patent US20260216057A1, “PHARMACEUTICAL COMPOSITIONS FOR HERPES VIRUS” (priority 2022, published 2026).

A short description of data set [1]: Example 12: Compound 1 (Form A) aqueous suspension SC PK study in dog. To be noted: 10 mg/kg, following an initial drug burst. The format is in vivo, male non-naïve Beagle dogs. How it is done:
An aqueous suspension of Compound 1 free form (Form A) in a 0.9% NaCl+0.5% poloxamer 188 vehicle at a concentration of 5.0 mg/mL was prepared as follows: • 1) Vehicle (0.9% w/w NaCl and 0.5% w/w poloxamer 188) was prepared by dissolving NaCl and poloxamer 188 in water. • 2) Appropriate amount of Compound 1 free form was weighed and added to the vehicle. • 3) The mixture was stirred for 15 minutes, then vortexed for 1 minute and then sonicated for 10 minutes. • 4) The final dosing formulation was a homogenous white cloudy suspension.
(§1) Male non-naïve beagles with ~10 kg body weight were used for the dog PK study. The animals had free access to food and water. The prepared suspension was administered via subcutaneous injection to each animal group (n=3) with a dosing volume of 2 mL/kg to achieve a 10 mg/kg dose.
At each time point, approximately 0.5 mL of whole blood was collected into K2EDTA tubes. Blood samples were put on ice and centrifuged at 2000 g for 5 min to obtain plasma samples within 15 minutes. Plasma samples were stored at approximately −70° C. until analyzed by LC-MS.

Data set [2] is described as follows: Example 17: Compound 1 (Form C) microsuspension and nanosuspension SC and IM PK study in rat. The format is in vivo, male Sprague Dawley rats. As to conditions: for prolonged exposure for (length of the study): 20 mg/animal (~80 mg/kg), micro- and nano-suspensions (Form C), both formulations. How it is done:
The LC-MS methodology and conditions used to analyse Compound 1 in rat plasma samples from the PK study described in Example 17 are given in Table 10.
An aqueous microsuspension of crystalline Compound 1 free form (crystalline Form C) in a 20 mg/mL PVP K30, 10 mg/mL poloxamer 188 and 50 mg/mL mannitol vehicle at a concentration of 200 mg/mL was prepared as follows: • 1) Crystalline Compound 1 (Form C) was jet milled to obtain microparticles (Dv90<10 μm). • 2) Jet milled material was dispersed in 20 mg/ml PVP K30+10 mg/ml Poloxamer 188+50 mg/ml mannitol to obtain a homogeneous suspension. • 3) The suspension was subjected to freeze drying to obtain a freeze-dried powder. • 4) Appropriate amounts of freeze-dried powder (based on assay) were weighed and added to water to obtain a 200 mg/ml suspension. • 5) The mixture was stirred for 5 minutes. • 6) The final dosing formulation was a homogenous white cloudy suspension.
An aqueous nano-suspension of crystalline Compound 1 free form (crystalline Form C) in a 20 mg/mL PVP K30, 10 mg/mL poloxamer 188 and 50 mg/mL mannitol vehicle at a concentration of 200 mg/mL was prepared as follows: • 1) 20 mg/mL crystalline Compound 1 (Form C) was dispersed into a solution of 2 mg/mL PVP K30 1.0 mg/mL poloxamer 188 and 5 mg/mL mannitol • 2) The suspension was subjected to high pressure homogenizer until the size was around 1 μm. • 3) After particle size reduction, the suspension was subjected to freeze drying to obtain a freeze-dried powder. • 4) The freeze-dried powder was reconstituted with water to obtain a 100 mg/mL suspension. • 5) The suspension was wet milled (10:1 0.1 mm zirconium oxide milling beads: Compound 1) at 900 rpm for 600 minutes to reduce particle size to nanosized particles (Dv90<200 nm). • 6) This nanosuspension was subjected to freeze drying to obtain a freeze-dried powder. • 7) Appropriate amounts of freeze-dried powder (based on assay) were weighed and added to water to obtain a 200 mg/ml suspension. • 8) The mixture was stirred for 10 minutes. • 9) The final dosing formulation was a homogenous white cloudy suspension.
Male Sprague Dawley (SD) rats with ~230-250 g body weight (aged 6-8 weeks) were used for the pharmacokinetic study. The animals had free access to food and water. The Compound 1 solution described above was administered via sub-cutaneous or intra-muscular injection to each animal group (n=3) with a dosing volume of 0.1 mL/animal (~0.4 mL/kg) to achieve a 20 mg/animal dose (~80 mg/kg).
At each time point, approximately 150 μL whole blood was collected in a K2EDTA tube via the jugular vein. Blood samples were put on ice and centrifuged at 2000 g for 5 min to obtain a plasma sample within 15 minutes. Plasma samples were stored at approximately −70° C. until analyzed by LC-MS.

Data set [3] can be described thus: Example 13: Compound 1 IV PK study in rat. The format is in vivo, male Sprague Dawley rats. To be noted: male, Sprague Dawley, plasma, 1 mg/kg, read-out: Rat t1/2 (converted). On the procedure: The LC-MS methodology and conditions used to analyse Compound 1 in plasma samples from the intra-venous injection PK studies (Example 13) are described in Tables 5 to 7. A 0.2 mg/mL solution of Compound 1 in 10% NMP, 10% Solutol HS15 and 80% Saline was prepared as follows: • 1) A stock solution of Compound 1 in NMP was prepared. • 2) An equal volume of the Compound 1 stock solution and Solutol HS15 were combined and mixed. • 3) The above solution was diluted with normal saline to reach the target concentration. The final formulation was a clear solution. Male Sprague Dawley (SD) rats with 230-250 g body weight, ages 6-8 weeks, were used for the rat pharmacokinetic study. The animals had free access to food and water. The Compound 1 solution described above was administered via intravenous injection to animals (n=3) to achieve a 1.0 mg/kg dose. At each time point, approximately 200 μL whole blood was collected in a K2EDTA tubes. Blood samples were put on ice and centrifuged at 2000 g for 5 min to obtain a plasma sample within 15 minutes. Plasma samples were stored at approximately −70° C. until analyzed by LC-MS according to the method described above.

Data set [4] is described as follows: Injection site observation in Example 10-12 Compound 1 PK studies. The format is in vivo, rat, monkey, dog. As to conditions: SC Compound 1 depot formulations, Examples 10-12, 3 species. How it is done:
The Compound 1 suspension described above was administered via sub-cutaneous injection to each animal group (n=3) with a dosing volume of 3.33 mL/kg to achieve a 10 mg/kg dose.
Male non-naïve Cyno Monkeys with ~4-6 kg body weight were used for the monkey PK study. The animals had free access to food and water. The prepared suspension was administered via subcutaneous injection to each animal group (n=3) with a dosing volume of 3.33 mL/kg to achieve a 10 mg/kg dose.
as §1

Data set [5] is described as follows: Allometric scaling of multi-species PK data to human.
A further data set relates to recurrent genital HSV-2. As to conditions: 28 days daily oral dosing; pritelivir 100 mg (after 400 mg loading dose), valacyclovir 500 mg; cited from earlier work.
A short description of the next data set: Plasma protein binding. The format is in vitro ADME. To be noted: read-out: free fraction of the total plasma concentration.

Consider `Cc1nc(N2CCCN(c3ccc(-c4cc(F)ccc4F)cc3)C2=O)sc1S(N)(=O)=O` [Compound 1, 2-(3-(2′,5′-difluoro-[1,1′-biphenyl]-4-yl)-2-oxotetrahydropyrimidin-1(2H)-yl)-4-methylthiazole-5-sulfonamide], for which the “prolonged exposure out to” value in data set [1] was “at least 220 days”. The “plasma levels, intramuscular compared with subcutaneous injection” value in data set [2] (20 mg/animal, micro- and nano-suspensions) is “plasma levels were higher than those achieved by these formulations when administered by subcutaneous injection”. Further, the “plasma levels, nanosuspension compared with microsuspension” value in data set [2] (intramuscular, 20 mg/animal) is listed as “nanosuspension provided higher plasma levels than the microsuspension”; in data set [2] (subcutaneous, 20 mg/animal, throughout the test period) it was “nanosuspension provided higher plasma levels than the microsuspension”. The “prolonged exposure for (length of the study)” value in data set [2] (intramuscular) and in data set [2] (subcutaneous) was “at least 600 hours” in each case. The “adverse reactions at the injection sites” value is “no adverse reactions observed” in data set [2] (intramuscular, micro- and nano-suspensions); “no adverse reactions observed” in data set [2] (subcutaneous, micro- and nano-suspensions); “no adverse reactions observed” in data set [4]. In addition, the half-life in data set [3] is 22 h. Also, the predicted human clearance in data set [5] was 0.06 L/h.
For `Cc1nc(N(C)C(=O)Cc2ccc(-c3ccccn3)cc2)sc1S(N)(=O)=O` [pritelivir, N-methyl-N-(4-methyl-5-sulfamoyl-1,3-thiazol-2-yl)-2-[4-(pyridin-2-yl)phenyl]acetamide], in the data set on recurrent genital HSV-2, the “HSV shedding, % of genital swabs analysed” value was 2.4%. Moreover, in “Plasma protein binding”, the fraction unbound was in the range of 0.02 to 0.03.
